Assay results from patent publication US11819532B2, “Peptide macrocycles against Acinetobacter baumannii” (Hoffmann-La Roche Inc., priority 2018, dated 2023).

Tests used:
[1] = positive control and comparator in all assay runs; cited from earlier work
[2] = Single dose pharmacokinetic study in male rats; details: rat, plasma, intravenous bolus dose of 6 mg/kg, read-out: rat clearance, observed in vivo
Description: Three male rats were administered with compound formulation (3 mg/mL in 0.9% saline) as an intravenous bolus dose of 6 mg/kg.
(§1) Blood was sampled at 0.08, 0.25, 0.5, 1, 2, 4, 7 and 24 hours after administration and the blood collecting tubes were centrifuged for 5 min at 5200 g at room temperature to isolate the plasma supernatant.
Concentrations of compound in plasma were analyzed using a LC-MS method with a calibration range of 1-2500 ng/mL. The clearance values are calculated using methods described in the art and are summarised in Example 23.

[3] = system: primary hepatocytes; test: Hepatocyte uptake assay scaled to in vivo clearance (rat); type: in vitro ADME; details: scaled from rat hepatocyte uptake, well-stirred liver model
Text: (§2) The compounds of the present invention are cleared through hepatic uptake, which can be determined experimentally in vitro using methods described in the art (e.g., K. Menochet, K. E. Kenworthy, J. B. Houston, A. Galetin, Journal of Pharmacology and Experimental Therapeutics 2012, 34, 2). In cases where the scaled in vitro hepatocyte uptake clearance data correspond to the clearance observed in animals, a meaningful prediction of the human clearance can be made on the basis of in vitro human hepatocyte uptake data.
(§3) The hepatocyte uptake assay was performed manually in 24-well plates in analogy to a protocol described in the literature (K. Menochet, K. E. Kenworthy, J. B. Houston, A. Galetin, Journal of Pharmacology and Experimental Therapeutics 2012, 34, 2). […] Next, the cell monolayer was lysed using acetonitrile/water 3:1, and the intracellular concentration was measured using LC-MS/MS.
(§4) Total (CLuptake) and passive (CLpassive) uptake clearance values were measured from initial uptake rates in the absence and presence of inhibitors. Uptake rates were calculated over 10 minutes at 37° C. from the slope of the linear regression of the cell concentrations versus time plot. Total and passive uptake clearance values were calculated by dividing the slope by the initial substrate concentration and were normalized for protein content. […]

[4] = Plasma precipitation screening assay; set-up: species or system rat
Description: An aliquot (10 μL) of compound solubilized in physiological buffer or the formulation used for its parenteral administration in vivo, and of various dilutions thereof in phosphate-buffered saline (PBS), is mixed 1:1 with rat plasma. After 10 minutes incubation at room temperature the UV-absorption of the mixtures is measured and compared to absorption of blank plasma or plasma with vehicle solution. A significant (often concentration dependent) increase of absorption is indicative of precipitation.
Whole blood is obtained from WISTAR rats (Hanbrl:Wist SPF) under terminal anaesthesia after intraperitoneal injection of a pentobarbital solution (from animals euthanized for collection of tissue for other experimental purposes). Blood is collected in 1.2 mL of Heparin S-Monovette tubes (Sarstedt) for the preparation of heparin plasma.
The tubes are then centrifuged for 5 min at 5200 g at room temperature to isolate the plasma supernatant. The plasma is used in the assay within 48 h of collection (storage at 4° C.).
Test compounds are received as powder or formulated. When obtained as powder, they are solubilized in 0.9% aq. sodium chloride solution in order to get the highest indicated concentration to be tested. The solubility is visually checked and the solutions are filtered using 0.45 PVDF hydrophilic filters (Durapore®, Darmstadt, Germany), to remove possible solid impurities. pH of this initial solution might be measured in the filtered stock solutions, before proceeding to prepare a compound dilution series in PBS (1:1-dilution steps).
The assay is conducted in 384-well plates. 10 μL of rat plasma is added to 10 μL of the various compound solutions. The assay is performed in duplicate. 10 μL of vehicle (0.9% aq. sodium chloride solution, PBS) added to the plasma is used as a negative control. The absorption is measured at 362 nm.
Raw data obtained are absorbance data. The difference between absorbance of the sample and mean absorbance of vehicle is calculated. The minimal effect concentration (MEC) is defined as the lowest concentration giving an absorbance difference, OD362≥0.05.

[5] = Single dose pharmacokinetic study in male cynomolgus monkeys; details: cynomolgus monkey, plasma, intravenous bolus dose of 1 mg/kg, read-out: cynomolgus monkey clearance, observed in vivo
Description: Three male monkeys were administered with compound formulation (2 mg/mL in 0.9% saline) as an intravenous bolus dose of 1 mg/kg.
as §1
Concentrations of compound in plasma were analyzed using a LC-MS method with a calibration range of 0.5-2500 ng/mL and are summarised in Example 23.

[6] = system: primary hepatocytes; test: Hepatocyte uptake assay scaled to in vivo clearance (cynomolgus monkey); type: in vitro ADME; details: scaled from monkey hepatocyte uptake, well-stirred liver model
Text: as §2, §3, §4

[7] = system: A. baumannii ATCC 17978; test: 50% growth inhibitory concentration (IC50) determination, antimicrobial susceptibility testing; type: cell-based; details: Acinetobacter baumannii; 50% growth inhibition, A. baumannii strain ATCC17978, Iso-Sensitest medium; read-out: IC50 ATCC17978
Description: The in vitro antimicrobial activity of the compounds was alternatively determined according to the following procedure:
The assay used a 10-points Iso-Sensitest broth medium to measure quantitatively the in vitro activity of the compounds against A. baumannii ATCC 17978.
Stock compounds in DMSO were serially twofold diluted (e.g. range from 50 to 0.097 μM or from 10 to 0.020 μM final concentration) in 384 wells microtiter plates and inoculated with 49 μl the bacterial suspension in Iso-Sensitest medium to have a final cell concentration of ˜5×10^(5)CFU/ml in a final volume/well of 50 μl/well. Microtiter plates were incubated at 35±2° C.
Bacterial cell growth was determined with the measurement of optical density at X=600 nm each 20 minutes over a time course of 16h.
Growth inhibition was calculated during the logarithmic growth of the bacterial cells with determination of the concentration inhibiting 50% (IC50) and 90% (IC90) of the growth.
Table 1 provides the 50% growth inhibitory concentrations (IC50) in micromoles per liter of the compounds of present invention obtained against the A. baumannii strain ATCC17978.

[8] = system: primary hepatocytes; test: Hepatocyte uptake assay scaled to in vivo clearance (human); type: in vitro ADME; details: scaled from human hepatocyte uptake, well-stirred liver model
Text: as §2, §3, §4

[9] = Wistar (Hanbrl:Wist SPF), rat, 10 min

Row | SMILES | precipitation in plasma [1] | clearance [2] | rat clearance, in vitro scaled [3] | Plasma precipitation MEC ([4]; minimal effect concentration, lowest concentration giving absorbance difference OD362≥0.05, rat plasma 1:1, 10 minutes room temperature) | clearance [5] | cynomolgus monkey clearance, in vitro scaled [6] | IC50 [7] | human clearance, in vitro scaled (predicted) [8] | Plasma precipitation MEC [4, 9]
1 | CN1C(=O)[C@H](CCCCN)NC(=O)[C@H](CCCN)NCc2cccnc2Sc2c(Cl)ccc(Cl)c2CNC(=O)[C@@H]1Cc1c[nH]c2ccccc12 [CAS-RN 2097284-11-0, (11S,14S,17S)-14-(4-Aminobutyl)-11-(3-aminopropyl)-22,25-dichloro-17-(1H-indol-3-ylmethyl)-16-methyl-2-thia-4,10,13,16,19-pentazatricyclo[19.4.0.03,8]pentacosa-1(25),3(8),4,6,21,23-hexaene-12,15,18-trione] | known to induce precipitation in plasma | – | – | – | – | – | – | – | –
2 | CN1C(=O)[C@H](CCCCN)NC(=O)[C@H](CCCN)NCc2cccnc2Sc2cccc(-c3ccc(C(=O)O)cc3)c2CNC(=O)[C@@H]1Cc1c[nH]c2ccccc12 [Example 1.00, 4-[(11S,14S,17S)-14-(4-Aminobutyl)-1-(3-aminopropyl)-17-(1H-indol-3-ylmethyl)-16-methyl-12,15,18-trioxo-2-thia-4,10,13,16,19-pentazatricyclo[19.4.0.03,8]pentacosa-1(25), 3(8),4,6,21,23-hexaen-22-yl]benzoic Acid] | – | 14.3 mL/min/kg | 14.5 mL/min/kg | 1110 µmol/L | 4.8 mL/min/kg | 3.8 mL/min/kg | 98 nM | 0.46 mL/min/kg | –
3 | CN1C(=O)[C@H](CCCCN)NC(=O)[C@H](CCCN)NCc2cccnc2Sc2c(Cl)ccc(-c3ccc(C(=O)O)cc3)c2CNC(=O)[C@@H]1Cc1c[nH]c2ccccc12 [drawing 99, reference compound] | – | 23.5 mL/min/kg | 28.7 mL/min/kg | – | 14.5 mL/min/kg | 28.3 mL/min/kg | – | 3.91 mL/min/kg | –
4 | CN1C(=O)[C@H](CCCCN)NC(=O)[C@H](CCCN)NCc2nccnc2Sc2c(Cl)ccc(-c3ccc(C(=O)O)c(F)c3)c2CNC(=O)[C@@H]1Cc1c[nH]c2ccccc12 [Example 8.02, 4-[(11S,14S,17S)-14-(4-aminobutyl)-11-(3-aminopropyl)-25-chloro-17-(1H-indo1-3-ylmethyl)-16-methyl-12,15,18-trioxo-2-thia-4,7,10,13,16,19-hexazatricyclo[19.4.0.03,8]pentacosa-1(21),3,5,7,22,24-hexaen-22-yl]-2-fluoro-benzoic acid] | – | – | – | – | – | – | 19 nM | – | 380 µmol/L
5 | CN1C(=O)[C@H](CCCCN)NC(=O)[C@H](CCCN)NCc2cccnc2Sc2c(Cl)ccc(-c3ccc(OCC(=O)O)cc3)c2CNC(=O)[C@@H]1Cc1c[nH]c2ccccc12 [Example 241 of WO2017/072062, reference compound] | – | – | – | – | – | – | 50 nM | – | 95 µmol/L
